Here are results for two compounds from patent publication US8349791B2, “Polypeptides that bind membrane proteins” (The Trustees of the University of Pennsylvania, priority 2006, dated 2013).

Peptide text beside a SMILES is read from it.

Data set [1] is described as follows: Trp fluorescence, phospholipid bilayer insertion. Type of data set: physicochemical. The note with it: for insertion into phospholipid vesicles: FIG. 9. How it is done: Fluorescence intensity was measured on an ATF 105 spectrofluorometer (Aviv Biomedical, Inc., Lakewood, N.J.) using a 0.3 cm path length cuvette. Small unilamellar vesicles composed of 1-Palmitoyl-2-Oleoyl-sn-Glycero-3-Phosphocholine and 1-Palmitoyl-2-Oleoyl-sn-Glycero-3-[Phospho-rac-(1-glycerol)] (7:3) were prepared using standard ethanol dilution (Batzri S & Korn E D. Biochim. Biophys. Acta. 298, 1015-1019 (1973)): phospholipids were initially dissolved in 15 μl ethanol and then diluted to 1 ml with buffer (20 mM HEPES, pH=7.5). Samples with 1 μM anti-αIIb in the presence of 0, 100, and 500 μM total phospholipids were prepared. Excitation of 280 nm was used for emission scans ranging from 410 nm to 300 nm. Excitation and emission slit widths are 2.5 nm and 1.5 nm, respectively. An average time of 1.0 second was used.
See FIG. 9, which provides the emission scans of anti-αIIb (1 μM) and of anti-αV in the presence of three different concentrations of phospholipids. Provided are emission scans of 1 μM anti-αIIb (FIG. 9a) and 1 μM anti-αV (FIG. 9b) in presence of 0 μM (*), 100 μM (†), and 500 μM (^) of phospholipids (POPC:POPG=7:3, excitation wavelength=280 nm). The emission maximum of the Trp residue in anti-αIIb occurs at 353 nm, consistent with a fully-exposed Trp residue in the absence of membranes. In the presence of phospholipids vesicles, the emission maximum blue-shifts by 31 nm, indicating a transfer to a membrane-like environment.

The target of another data set is T1, αVβ3 (Homo sapiens, UniProt P06756).
T1 construct: Platelets express a second integrin with a β3 subunit, αVβ3; endogenous in cells; host or cells: gel-filtered human platelets
T1 sequence (P06756 891-1048 limits assumed): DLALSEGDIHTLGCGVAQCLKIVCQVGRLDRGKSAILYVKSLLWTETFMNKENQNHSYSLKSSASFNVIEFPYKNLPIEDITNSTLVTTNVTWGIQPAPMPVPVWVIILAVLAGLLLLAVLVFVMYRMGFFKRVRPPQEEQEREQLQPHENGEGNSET
T1 sequence (P06756 31-889 partner limits assumed): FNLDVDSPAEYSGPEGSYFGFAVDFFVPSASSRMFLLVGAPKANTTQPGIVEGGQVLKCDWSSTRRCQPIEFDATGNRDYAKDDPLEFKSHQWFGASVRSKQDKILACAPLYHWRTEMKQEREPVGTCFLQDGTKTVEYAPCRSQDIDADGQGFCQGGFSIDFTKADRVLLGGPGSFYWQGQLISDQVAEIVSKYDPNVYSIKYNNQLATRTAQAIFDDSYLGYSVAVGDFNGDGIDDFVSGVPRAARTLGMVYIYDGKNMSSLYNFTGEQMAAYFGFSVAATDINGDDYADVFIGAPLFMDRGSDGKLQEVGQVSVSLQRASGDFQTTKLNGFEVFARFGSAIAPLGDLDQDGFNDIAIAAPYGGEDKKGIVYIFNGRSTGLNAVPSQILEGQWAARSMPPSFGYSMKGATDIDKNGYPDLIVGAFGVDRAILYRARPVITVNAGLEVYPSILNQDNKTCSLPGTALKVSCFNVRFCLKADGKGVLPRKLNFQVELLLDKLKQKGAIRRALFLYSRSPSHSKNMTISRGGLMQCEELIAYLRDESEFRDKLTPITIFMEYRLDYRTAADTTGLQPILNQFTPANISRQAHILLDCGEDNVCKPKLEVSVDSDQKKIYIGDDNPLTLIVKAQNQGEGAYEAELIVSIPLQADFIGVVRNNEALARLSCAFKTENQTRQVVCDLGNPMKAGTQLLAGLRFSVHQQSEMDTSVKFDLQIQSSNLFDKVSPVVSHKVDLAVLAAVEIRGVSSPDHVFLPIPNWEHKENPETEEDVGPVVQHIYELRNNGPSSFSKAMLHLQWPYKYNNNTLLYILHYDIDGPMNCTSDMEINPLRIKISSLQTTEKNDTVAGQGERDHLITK
T1 sequence (P05106 27-788 partner): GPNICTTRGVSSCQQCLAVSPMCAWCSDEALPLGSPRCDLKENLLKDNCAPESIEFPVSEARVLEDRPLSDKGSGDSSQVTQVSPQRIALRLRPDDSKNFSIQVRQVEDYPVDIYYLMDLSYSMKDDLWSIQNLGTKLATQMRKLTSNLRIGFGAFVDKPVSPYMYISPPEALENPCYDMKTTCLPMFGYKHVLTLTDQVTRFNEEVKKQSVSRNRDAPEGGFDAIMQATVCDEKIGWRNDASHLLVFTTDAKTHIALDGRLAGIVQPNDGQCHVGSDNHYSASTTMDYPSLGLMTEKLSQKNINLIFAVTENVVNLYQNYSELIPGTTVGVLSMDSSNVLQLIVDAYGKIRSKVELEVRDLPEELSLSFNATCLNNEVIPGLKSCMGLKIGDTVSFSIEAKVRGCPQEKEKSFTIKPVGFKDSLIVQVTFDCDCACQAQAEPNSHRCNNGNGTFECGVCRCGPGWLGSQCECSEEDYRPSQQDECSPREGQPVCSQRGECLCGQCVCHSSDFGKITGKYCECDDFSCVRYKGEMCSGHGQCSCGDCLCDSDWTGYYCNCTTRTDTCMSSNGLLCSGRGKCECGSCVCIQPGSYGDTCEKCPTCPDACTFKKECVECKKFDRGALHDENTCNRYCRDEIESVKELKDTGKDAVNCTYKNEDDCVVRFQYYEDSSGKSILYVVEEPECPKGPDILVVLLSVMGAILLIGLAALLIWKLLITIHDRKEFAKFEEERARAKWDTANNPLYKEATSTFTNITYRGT
The data set can be described thus: Force spectroscopy (laser tweezers), platelets and osteopontin-coated beads. The data set is classed as cell-based. The text has this:
Litvinov R I et al. Proc. Natl. Acad. Sci. USA. 99, 7426-31 (2002). Recombinant human OPN, prepared as previously described (Bennett J S et al. J. Biol. Chem. 272, 8137-40 (1997)) or purified human fibrinogen was covalently bound to 0.93 μm carboxylate-modified latex beads. Individual cells, trapped from a suspension of gel filtered human platelets or CHO cells, were manually attached to 5 μm diameter silica pedestals coated with polylysine. An OPN- or fibrinogen-coated bead, trapped by the laser light, was then brought into proximity of an immobilized cell, oscillated at 50 Hz, and then brought into repeated intermittent contact with the cell by micromanipulation. Data collection was initiated at the first contact between the bead and the cell. Rupture forces following repeated contacts were collected for periods of several seconds to one minute. Individual forces measured during each contact-detachment cycle were collected into 10 pN-wide bins. The number of events in each bin was then plotted against the average force for that bin after normalizing for the total number of interaction cycles. Thus, the percentage of events in a particular force range (bin) represents the probability of rupture events at that tension. Optical artifacts observed with or without trapped latex beads produce signals that appeared as forces below 10 pN. Therefore, rupture forces in this range were not considered when the data were analyzed. The polypeptide was added from a DMSO solution such that the final concentration of DMSO was no greater than 0.5%. All controls also had 0.5% DMSO in the buffer.
Platelets express a second integrin with a β3 subunit, αVβ3, which can bind the matrix protein osteopontin when platelets are stimulated by Mn^2+ or ADP. Bennett J S et al. J. Biol. Chem. 272, 8137-8140 (1997). To test the ability of anti-αIIb to discriminate between αIIbβ3 and αVβ3, the rupture force between platelets and osteopontin-coated beads in the presence and absence of anti-αIIb was measured.

Data set [2] can be described thus: TOXCAT homodimerization in bacterial membranes. The data set is classed as cell-based, Escherichia coli. The note with it: ToxR fusion in E. coli. As for the experimental part:
Both the affinity and specificity of the membrane protein-binding peptides for their targets when coexpressed in bacterial membranes were assessed with a DN-“TOXCAT” assay (FIGS. 3a-3c). In TOXCAT, a TM sequence of interest is fused to a ToxR protein (TM-ToxR) that binds to the ctx promoter as a dimer, which induces expression of chloramphenicol acetyltransferase (CAT) (W. P. Russ, D. M. Engelman, Proc. Natl. Acad. Sci. U.S.A. 96, 863 (1999); D. Langosch, B. Brosig, H. Kolmar, H. J. Fritz, J. Mol. Biol. 263, 525 (1996)). In the DN assay, the TM1-ToxR fusion protein is coexpressed with a second fusion protein (TM2-ToxR*) containing a nonfunctional mutant of the ToxR domain. TM-driven dimerization leads to a ToxR-ToxR* dimer that is unable to bind the ctx promoter or to induce CAT synthesis (FIG. 3a). The resulting decrease in CAT activity can be used to monitor the formation of a heterodimeric TM complex. In principle, this assay could be accomplished by adding an exogenous synthetic peptide (D. Gerber, N. Sal-Man, Y. Shai, J. Mol. Biol. 339, 243 (2004)); however, it is difficult to assure that different peptides will be similarly inserted into the Escherichia coli inner membrane. […]

The next data set deals with T2, αv TM domain (Homo sapiens, UniProt P06756).
T2 construct: expressed in transfected cells; host or cells: E. coli MM39, pDNToxR-Duet
T2 sequence (P06756 with tags, fused parts or gaps limits assumed): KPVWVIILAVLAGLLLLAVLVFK
Nature of the data set: DN-TOXCAT heterodimerization. Type of data set: cell-based. The note with it: coexpressed in bacterial membranes. As for the experimental part: Both the affinity and specificity of the membrane protein-binding peptides for their targets when coexpressed in bacterial membranes were assessed with a DN-“TOXCAT” assay (FIGS. 3a-3c). In TOXCAT, a TM sequence of interest is fused to a ToxR protein (TM-ToxR) that binds to the ctx promoter as a dimer, which induces expression of chloramphenicol acetyltransferase (CAT) (W. P. Russ, D. M. Engelman, Proc. Natl. Acad. Sci. U.S.A. 96, 863 (1999); D. Langosch, B. Brosig, H. Kolmar, H. J. Fritz, J. Mol. Biol. 263, 525 (1996)). In the DN assay, the TM1-ToxR fusion protein is coexpressed with a second fusion protein (TM2-ToxR*) containing a nonfunctional mutant of the ToxR domain. TM-driven dimerization leads to a ToxR-ToxR* dimer that is unable to bind the ctx promoter or to induce CAT synthesis (FIG. 3a). The resulting decrease in CAT activity can be used to monitor the formation of a heterodimeric TM complex. In principle, this assay could be accomplished by adding an exogenous synthetic peptide (D. Gerber, N. Sal-Man, Y. Shai, J. Mol. Biol. 339, 243 (2004)); however, it is difficult to assure that different peptides will be similarly inserted into the Escherichia coli inner membrane.
For testing the specificity of the designed membrane protein-binding polypeptide sequences against the integrin TM domains, the designed sequences (anti-αIIb and anti-αV) were cloned into MCS1 of the Duet vector and the integrin TM domains into MCS2 of the Duet vector. In this configuration, the integrin TMs compete for the homodimers formed by the polypeptide sequences, with the decrease in CAT signal proportional to the extent of heterodimerization between a given integrin TM and polypeptide sequence relative to the homodimerization of the polypeptide sequence.
Single MM39 colonies containing pDNToxR-Duet constructs from selective plates were chosen, inoculated in 5 mL of LB medium containing 100 μg/mL ampicillin and grown to an OD600 of 0.2 at 37° C. with vigorous shaking. IPTG was added to the medium at a final concentration of 0.1 mM IPTG and grown to an OD600 of 0.7. Purification, immunoblotting, CAT ELISA and MalE complementation assays are essentially as described previously. Li, R., Gorelik, R., Nanda, V., Law, P. B., Lear, J. D., DeGrado, W. F. and Bennett, J. S. J. Biol. Chem. 2004, 279, 26666-26673 (2004). For immunoblotting, anti-MBP (NEB) was used for pccKAN (TOXCAT) constructs, whereas anti-myc (Covance) and anti-HA (Covance) were used for pDNToxR-Duet constructs. CAT ELISA results are an average of 3 independent replicates.

AYVFILLSFILGTLLGFLVMFWA [anti-αV]: the “insertion into phospholipid vesicles” value in data set [1] is “successfully insert”. Also, at αVβ3, the “peak of rupture force between platelets and osteopontin-coated beads” value came to 40 pN; the “rupture force peak in the presence of αvβ3 antagonist XJ735” value is reported as “not present”. Also, the “homodimer formation in bacterial membranes (CAT signal, words)” value in data set [2] is “affinity similar to that of the TM domain of glycophorin A (GpA)”. The “interaction with αv TM domain” value at αv TM domain was “much greater affinity than the α2, αIIb, β1, or β3 domains”.

`CC[C@H](C)[C@H](NC(=O)[C@H](Cc1ccccc1)NC(=O)[C@H](Cc1ccccc1)NC(=O)[C@@H]1CCCN1C(=O)[C@H](CC(C)C)NC(=O)[C@H](CC(C)C)NC(=O)[C@H](CCSC)NC(=O)[C@@H](NC(=O)[C@H](Cc1ccc(O)cc1)NC(=O)[C@H](C)NC(=O)[C@H](CCCCN)NC(=O)[C@@H](N)CCCCN)C(C)C)C(=O)NCC(=O)N[C@@H](CC(C)C)C(=O)N[C@@H](CC(C)C)C(=O)N[C@@H](CC(C)C)C(=O)NCC(=O)N[C@@H](CC(C)C)C(=O)N[C@H](C(=O)N[C@@H](Cc1ccccc1)C(=O)NCC(=O)NCC(=O)N[C@@H](C)C(=O)N[C@@H](Cc1ccccc1)C(=O)N[C@@H](Cc1c[nH]c2ccccc12)C(=O)NCC(=O)N1CCC[C@H]1C(=O)N[C@@H](C)C(=O)N[C@@H](CCCNC(=N)N)C(=O)N[C@@H](Cc1c[nH]cn1)C(=O)N[C@@H](CC(C)C)C(=O)N[C@@H](CCCCN)C(=O)N[C@@H](CCCCN)C(N)=O)[C@@H](C)CC` [anti-αIIb] (H-KKAYVMLLPFFIGLLLGLIFGGAFWGPARHLKK-NH2; N-terminus assumed): the “blue-shift of Trp emission maximum in the presence of phospholipid vesicles” value in data set [1] (1 μM peptide, POPC:POPG 7:3 vesicles) amounted to 31 nm. Moreover, in data set [1] (1 μM peptide, excitation 280 nm, 0 μM phospholipids), the “emission maximum of the Trp residue in the absence of membranes” value turned out to be 353 nm. The “insertion into phospholipid vesicles” value in data set [1] is given as “successfully insert”. Moreover, on αVβ3 (0.5 μM polypeptide), the “rupture force, platelets and osteopontin-coated beads” value is listed as “No peak of rupture force was observed”. For the same compound, the “homodimer formation in bacterial membranes (CAT signal, words)” value in data set [2] was “affinity similar to that of the TM domain of glycophorin A (GpA)”. The “interaction with αv TM domain” value at αv TM domain is listed as “failed to significantly interact”.
